Results taken from the NIST ThermoML archive (doi:10.1016/j.jct.2016.03.030).
Numbers after ± are expanded uncertainties.

Assay: molar heat capacity at constant pressure; xn = mol fraction of the nth substance listed
Conditions: 100 kPa, Liquid, Small sample (50 mg) DSC

CCCCC[N+]1(C)CCOCC1.[Br-] [4-methyl-4-pentylmorpholinium bromide] + O
molar heat capacity at constant pressure [J/K/mol]
Conditions	298.15 K	303.15 K	308.15 K	313.15 K	318.15 K	323.15 K	328.15 K	333.15 K	338.15 K	343.15 K
x1 = 0.0316	94.11 ± 9.5	94.16 ± 9.5	94.44 ± 9.5	94.72 ± 9.6	94.98 ± 9.6	95.31 ± 9.6	95.54 ± 9.7	95.76 ± 9.7	95.94 ± 9.7	96.1 ± 9.7
x1 = 0.0695	105.99 ± 11	106.33 ± 11	106.88 ± 11	107.4 ± 11	107.91 ± 11	108.43 ± 11	108.87 ± 11	109.28 ± 11	109.73 ± 11	110.14 ± 11
x1 = 0.1522	133.02 ± 13	133.71 ± 14	134.95 ± 14	135.91 ± 14	136.93 ± 14	138.01 ± 14	138.86 ± 14	139.78 ± 14	140.69 ± 14	141.55 ± 14
x1 = 0.2054	153.72 ± 16	154.58 ± 16	156.03 ± 16	157.22 ± 16	158.41 ± 16	159.6 ± 16	160.73 ± 16	161.92 ± 16	163.04 ± 16	164.03 ± 17
x1 = 0.219	149.69 ± 15	150.59 ± 15	151.97 ± 15	153.29 ± 15	154.54 ± 16	155.79 ± 16	156.96 ± 16	158 ± 16	159.04 ± 16	160.08 ± 16
x1 = 0.2438	159.53 ± 16	160.5 ± 16	161.93 ± 16	163.21 ± 16	164.56 ± 17	165.91 ± 17	167.26 ± 17	168.39 ± 17	169.59 ± 17	170.72 ± 17
x1 = 0.2754	165.68 ± 17	166.67 ± 17	168.15 ± 17	169.64 ± 17	170.96 ± 17	172.28 ± 17	173.51 ± 17	174.92 ± 18	176.15 ± 18	177.39 ± 18

CCCC[N+]1(C)CCOCC1.[Br-] [4-butyl-4-methylmorpholinium bromide] + O
molar heat capacity at constant pressure [J/K/mol]
Conditions	298.15 K	303.15 K	308.15 K	313.15 K	318.15 K	323.15 K	328.15 K	333.15 K	338.15 K	343.15 K
x1 = 0.0363	87.85 ± 8.9	87.9 ± 8.9	88.24 ± 8.9	88.5 ± 8.9	88.76 ± 9	89.02 ± 9	89.23 ± 9	89.41 ± 9	89.57 ± 9.1	89.8 ± 9.1
x1 = 0.0601	94.21 ± 9.5	94.49 ± 9.5	95.08 ± 9.6	95.61 ± 9.7	96.11 ± 9.7	96.14 ± 9.7	96.74 ± 9.8	97.08 ± 9.8	97.24 ± 9.8	97.27 ± 9.8
x1 = 0.1242	111.81 ± 11	112.44 ± 11	113.49 ± 11	114.39 ± 12	115.3 ± 12	116.21 ± 12	117.02 ± 12	117.79 ± 12	118.61 ± 12	119.34 ± 12
x1 = 0.2383	149.98 ± 15	150.75 ± 15	152.16 ± 15	153.36 ± 16	154.56 ± 16	155.82 ± 16	156.95 ± 16	158.08 ± 16	159.21 ± 16	160.26 ± 16
x1 = 0.2569	154.14 ± 16	155.11 ± 16	156.45 ± 16	157.64 ± 16	158.76 ± 16	160.03 ± 16	161.22 ± 16	162.27 ± 16	163.39 ± 16	164.51 ± 17
x1 = 0.3007	165.4 ± 17	166.24 ± 17	167.67 ± 17	168.93 ± 17	170.11 ± 17	171.54 ± 17	172.72 ± 17	173.82 ± 18	175 ± 18	176.09 ± 18

CCC[N+]1(C)CCOCC1.[Br-] [4-methyl-4-propylmorpholinium bromide] + O
molar heat capacity at constant pressure [J/K/mol]
Conditions	298.15 K	303.15 K	308.15 K	313.15 K	318.15 K	323.15 K	328.15 K	333.15 K	338.15 K	343.15 K
x1 = 0.0336	82.58 ± 8.3	82.9 ± 8.4	83.23 ± 8.4	83.53 ± 8.4	83.78 ± 8.5	84.05 ± 8.5	84.28 ± 8.5	84.5 ± 8.5	84.72 ± 8.6	84.95 ± 8.6
x1 = 0.0618	89.62 ± 9	89.92 ± 9.1	90.54 ± 9.1	91.03 ± 9.2	91.49 ± 9.2	92.05 ± 9.3	92.45 ± 9.3	92.91 ± 9.4	93.25 ± 9.4	93.65 ± 9.5
x1 = 0.1298	107.63 ± 11	108.21 ± 11	109.1 ± 11	110 ± 11	110.81 ± 11	111.61 ± 11	112.42 ± 11	113.09 ± 11	113.81 ± 12	114.43 ± 12
x1 = 0.2036	125.06 ± 13	125.72 ± 13	126.8 ± 13	127.7 ± 13	128.6 ± 13	129.5 ± 13	130.16 ± 13	130.58 ± 13	130.94 ± 13	131.12 ± 13
x1 = 0.2742	132.6 ± 13	133.19 ± 13	134.31 ± 14	135.28 ± 14	136.1 ± 14	137.14 ± 14	137.89 ± 14	138.56 ± 14	139.23 ± 14	140.05 ± 14
x1 = 0.3025	146.99 ± 15	147.64 ± 15	148.84 ± 15	149.81 ± 15	150.85 ± 15	151.81 ± 15	152.7 ± 15	153.5 ± 16	154.39 ± 16	155.03 ± 16
